# Reference: patent US12180187B2, “1-phenyl-5-azinylpyrazolyl-3-oxyalkyl acids and their use for controlling unwanted plant growth” (BAYER AKTIENGESELLSCHAFT, priority 2019, dated 2024)
# How the values were obtained:
# VIOTR = experiment: Pre-emergence action at 320 g/ha against VIOTR; type: in vivo, Viola tricolor; details: dosage 320 g/ha
# Description: (§1) b) Seeds of monocotyledonous and dicotyledonous weed plants and crop plants are placed in plastic or organic planting pots and covered with soil. The compounds of the invention, formulated in the form of wettable powders (WP) or as emulsion concentrates (EC), are then applied onto the surface of the covering soil as aqueous suspension or emulsion with addition of 0.5% additive at a water application rate of 600 l/ha (converted). After the treatment, the pots are placed in a greenhouse and kept under good growth conditions for the trial plants. After about 3 weeks, the effect of the preparations is scored visually in comparison with untreated controls as percentages. For example, 100% activity=the plants have died, 0% activity=like control plants. Tables 13 to 26 below show the effects of selected compounds of the general formula (I) on various harmful plants and at an application rate corresponding to 320 g/ha, which were obtained by the experimental procedure mentioned above.
# ALOMY = experiment: Pre-emergence action at 320 g/ha against ALOMY; type: in vivo, Alopecurus myosuroides; details: scored visually after about 3 weeks vs untreated controls (100% = plants have died)
# Description: as §1
# POLCO = experiment: Pre-emergence action at 320 g/ha against POLCO; type: in vivo, Fallopia convolvulus (Polygonum convolvulus); details: visual scoring after about 3 weeks vs untreated controls
# Description: as §1
# SETVI = experiment: Pre-emergence action at 320 g/ha against SETVI; type: in vivo, Setaria viridis; details: visual scoring after about 3 weeks vs untreated controls
# Description: as §1
# MATIN = experiment: Pre-emergence action at 320 g/ha against MATIN; type: in vivo, Tripleurospermum inodorum (Matricaria inodora); details: visual scoring after about 3 weeks vs untreated controls
# Description: as §1
# AMARE = experiment: Pre-emergence action at 320 g/ha against AMARE; type: in vivo, Amaranthus retroflexus; details: visual scoring after about 3 weeks vs untreated controls
# Description: as §1
# VERPE = experiment: Pre-emergence action at 320 g/ha against VERPE; type: in vivo, Veronica persica; details: visual scoring after about 3 weeks vs untreated controls
# Description: as §1
Compound,Pre-emergence action against VIOTR in % (VIOTR) [%],Pre-emergence action at 320 g/ha against ALOMY in % (ALOMY) [%],Pre-emergence action against POLCO in % (POLCO) [%],Pre-emergence action against SETVI in % (SETVI) [%],Pre-emergence action against MATIN in % (MATIN) [%],Pre-emergence action against AMARE in % (AMARE) [%],Pre-emergence action against VERPE in % (VERPE) [%]
O=C(O)CNC(=O)C(F)Oc1nn(-c2ccccc2F)c(-c2ccc(F)nc2)c1Br (stereo not drawn) [Example X-012],100,90,90,90,90,100,–
COC(=O)C1CCCN(C(=O)COc2nn(-c3ccccc3F)c(-c3cncc(F)c3)c2Br)C1 (stereo not drawn) [Example X-034],90,–,–,–,–,–,90
COC(=O)C1CCN(C(=O)COc2nn(-c3ccccc3F)c(-c3cncc(F)c3)c2Br)C1 (stereo not drawn) [Example X-037],–,–,90,–,–,100,100
CCOC(=O)COc1nn(-c2ccccc2F)c(-c2ccc(F)nc2)c1C(F)F [VII-078],90,80,–,–,–,100,80
